# From patent publication US20130172311A1, “Substituted heterocyclyl benzyl pyrazoles, and use thereof” (BAYER INTELLECTUAL PROPERTY GMBH, priority 2010, published 2013)
# Legend:
# [1] = Pharmacokinetic parameters after intravenous administration in rats; type: in vivo; conditions: rat, plasma, i.v., comparison compound, read-out: CLplasma (plasma clearance) (converted)
# Description: (§1) The substance to be examined was administered to animals (for example mice or rats) intravenously as a solution (for example in corresponding plasma with a small addition of DMSO or in a PEG/ethanol/water mixture), and peroral administration was effected as a solution (for example in Solutol/ethanol/water or PEG/ethanol/water mixtures) or as a suspension (e.g. in tylose), in each case via a gavage. After administration of the substance, blood was taken from the animals at fixed times. The blood was heparinized, then plasma was obtained therefrom by centrifugation. The substance was quantified analytically in the plasma via LC-MS/MS. From the plasma concentration/time plots determined in this way, using an internal standard and with the aid of a validated computer program, the pharmacokinetic parameters, such as AUC (area under the concentration/time curve), Cmax, (maximum plasma concentration), t1/2 (half life), VSS (distribution volume) and CL (clearance), and the absolute and relative bioavailability F and Frei (i.v./p.o. comparison or comparison of suspension to solution after p.o. administration), were calculated.
# The substance to be examined was administered intravenously to rats, in each case in amounts between 0.3 and 1.0 mg/kg as a solution in plasma which contained up to 2% DMSO.
# [2] = system: luciferase reporter under the control of an HIF-responsive sequence in HCT 116 cells; experiment: HIF luciferase assay; type: cell-based; conditions: Homo sapiens, HCT 116 reporter cells, hypoxia chamber (1% O2), 24 h
# Description: HCT 116 cells were stably transfected with a plasmid which contained a luciferase reporter under the control of an HIF-responsive sequence. These cells were sown in microtitre plates [20 000 cells/cavity in RPMI 1640 medium with 10% foetal calf serum (FCS) and 100 μg/ml of hygromycin]. They were incubated overnight under standard conditions (5% CO2, 21% O2, 37° C., moistened). The following morning the cells were incubated with different concentrations of the test substances (0-10 μmol/l) in a hypoxia chamber (1% O2). After 24 h, Bright Glo reagent (Promega, Wis., USA) was added in accordance with the manufacturer's instructions, and after 5 min the luminescence was measured. Cells which were incubated under normoxia served as background controls.
# [3] = Pharmacokinetic parameters after peroral administration in rats; type: in vivo; conditions: for AUCnorm (dose-normalized exposure) / bioavailability: 1-3 mg/kg, solution in Solutol/ethanol/water; for bioavailability: rat, plasma, po, read-out: F (bioavailability)
# Description: as §1
# To determine the active ingredient release from a prodrug compound, the prodrug was administered either intravenously or perorally, as described above, and the concentrations both of the prodrug and of the active ingredient released were quantified in the processed plasma.
# The substance to be examined was administered perorally to rats, in each case in amounts between 1 and 3 mg/kg as a solution in Solutol/ethanol/water (40:10:50 or 40:20:40). The kinetic parameters determined for Working Example 1 are shown below by way of example for the inventive compounds [AUCnorm=dose-normalized exposure (area under the concentration/time curve)]:
# The second row in this table gives the pharmacokinetic parameters for Example 1, as obtained after peroral administration of the prodrug compound from Example 15 (1 mg/kg of crystalline substance as a tylose suspension in water).
# [4] = pH-dependent hydrolysis stability; type: physicochemical; conditions: HPLC area %; for % Example 1 active ingredient: released from prodrug Example 15
# Description: 0.3 mg of the test substance (prodrug) was weighed into a 2 ml HPLC vial, and 0.6 ml of acetonitrile or acetonitrile/DMSO mixture (with up to 20 percent by volume of DMSO) was added. To dissolve the substance, the sample vessel was placed into an ultrasound bath for approx. 10 seconds. Subsequently, 1.0 ml of the particular aqueous buffer solution was added (commercially available buffer solutions of pH 2, 4, 6.5, 8 and 10) and the sample was treated again in the ultrasound bath. Over a period of 24 hours at 37° C., 5 μl of the sample solution were analysed by HPLC every hour for its content of unchanged prodrug or active ingredient released therefrom by hydrolysis. Quantification was effected via the area percentages of the corresponding HPLC peaks.
# [5] = Plasma stability in vitro, human plasma; type: in vitro ADME; conditions: 37°C
# Description: (§2) 1 mg of the test substance (prodrug) was weighed into a 2 ml HPLC vial, and 1.5 ml of DMSO and 1 ml of water were added. To dissolve the substance, the sample vessel was placed into an ultrasound bath for approx. 10 seconds. 0.5 ml of rat plasma or human plasma at 37° C. was added to 0.5 ml of this solution. The sample was agitated and approx. 10 μl were taken for a first analysis (time t0). […] The sample was kept at 37° C. over the test period. Characterization and quantification were effected by HPLC.
# [6] = Plasma stability in vitro, rat plasma; type: in vitro ADME; conditions: 37°C
# Description: as §2
structure (smiles),measurement,setting,value
"Cc1ccc(Cn2nc(-c3nc(-c4ccc(OC(F)(F)F)cc4)no3)cc2C)cc1 [Example 1 in WO 2008/141731-A2, 5-[5-methyl-1-(4-methylbenzyl)-1H-pyrazol-3-yl]-3-[4-(trifluoromethoxy)phenyl]-1,2,4-oxadiazole, reference compound]",clearance,[1],6.67 mL/min/kg
same,IC50,[2]; comparison compound,30 nM
same,AUCnorm (dose-normalized exposure),[3]; p.o.,1.9 kg·h/L
same,bioavailability,[3],74%
"Cc1cc(-c2nc(-c3ccc(OC(F)(F)F)cc3)no2)nn1Cc1cccc(N2CC(O)C2)c1 [Example 1, 1-{3-[(5-Methyl-3-{3-[4-(trifluoromethoxy)phenyl]-1,2,4-oxadiazol-5-yl}-1H-pyrazol-1-yl)methyl]phenyl}azetidin-3-ol]",IC50,[2],0.7 nM
same,AUCnorm (dose-normalized exposure),[3]; p.o.,0.43 kg·h/L
same,AUCnorm of Example 1 after administration of prodrug Example 15,"[3]; p.o., prodrug Example 15, 1 mg/kg crystalline substance as tylose suspension in water",0.35 kg·h/L
same,bioavailability,[3],68%
same,% Example 1 active ingredient,"[4]; pH 2, 37°C, after 12 h",6%
same,% Example 1 active ingredient,"[4]; pH 4, 37°C, after 12 h",9%
same,% Example 1 active ingredient,"[4]; pH 6.5, 37°C, 0 h",3%
same,% Example 1 active ingredient,"[4]; pH 6.5, 37°C, 2 h",7%
same,% Example 1 active ingredient,"[4]; pH 6.5, 37°C, 4 h",10%
same,% Example 1 active ingredient,"[4]; pH 6.5, 37°C, 6 h",13%
same,% Example 1 active ingredient,"[4]; pH 6.5, 37°C, 12 h",22%
same,% Example 1 active ingredient,"[4]; pH 6.5, 37°C, 24 h",35%
same,% Example 1 active ingredient,"[4]; pH 8, 37°C, after 12 h",30%
same,% Example 1 active ingredient,"[4]; pH 10, 37°C, after 12 h",78%
"Cc1cc(-c2nc(-c3ccc(C4(C(F)(F)F)CC4)cc3)no2)nn1Cc1cccc(N2CC(O)C2)c1 [Example 2, 1-(3-{[5-Methyl-3-(3-{4-[1-(trifluoromethyl)cyclopropyl]phenyl}-1,2,4-oxadiazol-5-yl)-1H-pyrazol-1-yl]methyl}phenyl)azetidin-3-ol]",IC50,[2],0.6 nM
"Cc1cc(-c2nc(-c3ccc(C(C)(C)C(F)(F)F)cc3)no2)nn1Cc1cccc(N2CC(O)C2)c1 [Example 3, 1-{3-[(5-Methyl-3-{3-[4-(1,1,1-trifluoro-2-methylpropan-2-yl)phenyl]-1,2,4-oxadiazol-5-yl}-1H-pyrazol-1-yl)methyl]phenyl}azetidin-3-ol]",IC50,[2],0.6 nM
"Cc1cc(-c2nc(-c3ccc(OC(F)(F)F)cc3)no2)nn1Cc1cccc(N2CCC(O)CC2)c1 [Example 8, 1-{3-[(5-Methyl-3-{3-[4-(trifluoromethoxy)phenyl]-1,2,4-oxadiazol-5-yl}-1H-pyrazol-1-yl)methyl]phenyl}piperidin-4-ol]",IC50,[2],0.6 nM
"Cc1cc(-c2nc(-c3ccc(C4(C(F)(F)F)CC4)cc3)no2)nn1Cc1cccc(N2CCC(O)CC2)c1 [Example 9, 1-(3-{[5-Methyl-3-(3-{4-[1-(trifluoromethyl)cyclopropyl]phenyl}-1,2,4-oxadiazol-5-yl)-1H-pyrazol-1-yl]methyl}phenyl)piperidin-4-ol]",IC50,[2],0.5 nM
"Cc1cc(-c2nc(-c3ccc(C(C)(C)C(F)(F)F)cc3)no2)nn1Cc1cccc(N2CCC(O)CC2)c1 [Example 10, 1-{3-[(5-Methyl-3-{3-[4-(1,1,1-trifluoro-2-methylpropan-2-yl)phenyl]-1,2,4-oxadiazol-5-yl}-1H-pyrazol-1-yl)methyl]phenyl}piperidin-4-ol]",IC50,[2],0.4 nM
"Cc1cc(-c2nc(-c3ccc(OC(F)(F)F)cc3)no2)nn1Cc1cccc(N2CCC(C#N)CC2)c1 [Example 11, 1-{3-[(5-Methyl-3-{3-[4-(trifluoromethoxy)phenyl]-1,2,4-oxadiazol-5-yl}-1H-pyrazol-1-yl)methyl]phenyl}piperidine-4-carbonitrile]",IC50,[2],0.4 nM
"Cc1cc(-c2nc(-c3ccc(C4(C(F)(F)F)CC4)cc3)no2)nn1Cc1cccc(N2CCC(C#N)CC2)c1 [Example 12, 1-(3-{[5-Methyl-3-(3-{4-[1-(trifluoromethyl)cyclopropyl]phenyl}-1,2,4-oxadiazol-5-yl)-1H-pyrazol-1-yl]methyl}phenyl)piperidine-4-carbonitrile]",IC50,[2],0.3 nM
"Cc1cc(-c2nc(-c3ccc(C(C)(C)C(F)(F)F)cc3)no2)nn1Cc1cccc(N2CCC(C#N)CC2)c1 [Example 13, 1-{3-[(5-Methyl-3-{3-[4-(1,1,1-trifluoro-2-methylpropan-2-yl)phenyl]-1,2,4-oxadiazol-5-yl}-1H-pyrazol-1-yl)methyl]phenyl}piperidine-4-carbonitrile]",IC50,[2],0.3 nM
"Cc1cc(-c2nc(-c3ccc(SC(F)(F)F)cc3)no2)nn1Cc1cccc(N2CCC(O)CC2)c1 [Example 14, 1-(3-{[5-Methyl-3-(3-{4-[(trifluoromethyl)sulphanyl]phenyl}-1,2,4-oxadiazol-5-yl)-1H-pyrazol-1-yl]methyl}phenyl)piperidin-4-ol]",IC50,[2],0.5 nM
"Cc1cc(-c2nc(-c3ccc(OC(F)(F)F)cc3)no2)nn1Cc1cccc(N2CC(OC(=O)CN(C)C)C2)c1 [Example 15, 1-{3-[(5-Methyl-3-{3-[4-(trifluoromethoxy)phenyl]-1,2,4-oxadiazol-5-yl}-1H-pyrazol-1-yl)methyl]phenyl}azetidin-3-yl N,N-dimethylglycinate]",prodrug compound in plasma,"[3]; p.o., 1 mg/kg as tylose suspension, all times examined",not detectable
same,% Example 15 prodrug,[5]; 0 h,97%
same,% Example 15 prodrug,[5]; 0.5 h,96%
same,% Example 15 prodrug,[5]; 1 h,93%
same,% Example 15 prodrug,[5]; 1.5 h,91%
same,% Example 15 prodrug,[5]; 2 h,89%
same,% Example 15 prodrug,[5]; 4 h,81%
same,% Example 15 prodrug,"[4]; pH 2, 37°C, after 12 h",89%
same,% Example 15 prodrug,"[4]; pH 4, 37°C, after 12 h",89%
same,% Example 15 prodrug,"[4]; pH 6.5, 37°C, 0 h",94%
same,% Example 15 prodrug,"[4]; pH 6.5, 37°C, 2 h",91%
same,% Example 15 prodrug,"[4]; pH 6.5, 37°C, 4 h",87%
same,% Example 15 prodrug,"[4]; pH 6.5, 37°C, 6 h",84%
same,% Example 15 prodrug,"[4]; pH 6.5, 37°C, 12 h",73%
same,% Example 15 prodrug,"[4]; pH 6.5, 37°C, 24 h",56%
same,% Example 15 prodrug,"[4]; pH 8, 37°C, after 12 h",64%
same,% Example 15 prodrug,"[4]; pH 10, 37°C, after 12 h",0%
same,melting point,,117 °C
same,% Example 15 prodrug,[6]; 0 h,95%
same,% Example 15 prodrug,[6]; 0.5 h,87%
same,% Example 15 prodrug,[6]; 1 h,80%
same,% Example 15 prodrug,[6]; 1.5 h,72%
same,% Example 15 prodrug,[6]; 2 h,69%
same,% Example 15 prodrug,[6]; 4 h,52%
